Assay results from US20250296959A1, “B7-H3 TARGETING PEPTIDES AND CONSTRUCTS THEREOF” (Mariana Oncology Inc., priority 2024, published 2025).
Starred links: 1 amine or outer side, 2 acyl side, 3 side chain; linkers in the order of their positions; H or OH if unused. Positions of bridges follow the written chain, without caps; N, C: chain ends. Non-standard residues stand in square brackets, D forms with d. Residues, ends and D or L forms follow the SMILES beside them. Groups on a side chain read outwards from the residue. *: point of attachment. Ala(piperidin-4-yl) = O=C([C@H](CC1CCN([*:3])CC1)N[*:1])[*:2]; DOTA = O=C(O)CN1CCN(CC(=O)O)CCN(CC(=O)*)CCN(CC(=O)O)CC1; Butanoyl(4-(4-I-phenyl)) = O=C(CCCc1ccc(I)cc1)*; Trp(5-F) = N[C@@H](Cc1c[nH]c2ccc(F)cc12)C(=O)O; PEG8 = NCCOCCOCCOCCOCCOCCOCCOCCOCCC(=O)O; Ala(4-THP) = N[C@@H](CC1CCOCC1)C(=O)O; Val(3-OH) = CC(C)(O)[C@H](N)C(=O)O; Cha = N[C@@H](CC1CCCCC1)C(=O)O; PEG4 = NCCOCCOCCOCCOCCC(=O)O; Tle = CC(C)(C)[C@H](N)C(=O)O; hLeu = CC(C)CC[C@H](N)C(=O)O; NMeC = CN[C@@H](CS)C(=O)O; hSer = N[C@@H](CCO)C(=O)O; Aze = O=C(O)[C@@H]1CCN1; Dap = NC[C@H](N)C(=O)O; Sar = CNCC(=O)O

Biological target: T1, human 4lg B7-H3 (Homo sapiens, UniProt Q5ZPR3)
T1 sequence (Q5ZPR3 29-534): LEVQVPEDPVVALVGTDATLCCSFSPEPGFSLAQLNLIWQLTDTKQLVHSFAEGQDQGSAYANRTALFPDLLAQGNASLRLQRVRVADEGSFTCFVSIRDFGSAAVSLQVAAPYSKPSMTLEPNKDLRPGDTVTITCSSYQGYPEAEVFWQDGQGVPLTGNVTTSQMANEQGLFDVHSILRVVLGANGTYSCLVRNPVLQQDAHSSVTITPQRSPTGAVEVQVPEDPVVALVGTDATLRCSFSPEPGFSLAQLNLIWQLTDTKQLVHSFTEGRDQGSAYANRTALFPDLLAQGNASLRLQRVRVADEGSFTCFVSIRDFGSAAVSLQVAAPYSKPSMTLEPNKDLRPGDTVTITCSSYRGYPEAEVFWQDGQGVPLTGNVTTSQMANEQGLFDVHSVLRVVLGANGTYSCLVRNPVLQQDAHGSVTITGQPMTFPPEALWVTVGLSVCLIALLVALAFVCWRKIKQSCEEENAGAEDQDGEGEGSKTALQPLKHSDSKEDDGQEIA
Experiment: Affinity determination by surface plasmon resonance (SPR) to 4Ig B7-H3
Settings: SPR KD—25° C., 4Ig B7-H3; 25° C. flow cell temperature

Structure (SMILES)	Kd [nM]
CC(=O)N[C@@H](CCC(C)C)C(=O)N[C@@H](Cc1ccc(O)cc1)C(=O)N(C)[C@H]1CSSC[C@@H](C(=O)N[C@@H](Cc2c[nH]c3ccc(F)cc23)C(=O)N[C@@H](Cc2ccccc2)C(=O)N[C@H](C(=O)N[C@H](CCCCNC(=O)CN2CCN(CC(=O)O)CCN(CC(=O)O)CCN(CC(=O)O)CC2)C(=O)O)[C@@H](C)O)NC(=O)[C@H](Cc2ccc(O)cc2)NC(=O)[C@H](C(C)C)NC(=O)[C@H](CC(=O)O)NC(=O)[C@H](CC2CCOCC2)NC(=O)[C@H](CCCCN)NC(=O)CNC(=O)[C@H](C(C)C)NC1=O [compound 361, Ac-hLeu-Y-NMeCys-V-G-K-ThpA-D-V-Y-C-5FW-F-Thr-dLys(DOTA)-COOH] (Ac-[hLeu]Y[NMeC]VGK[Ala(4-THP)]DVYC[Trp(5-F)]FT[dK](DOTA)-OH; disulfide 3-11)	1 to 10
CC(=O)N[C@@H](CCC(C)C)C(=O)N[C@@H](Cc1ccc(O)cc1)C(=O)N[C@H]1CSSC[C@@H](C(=O)N[C@@H](Cc2c[nH]c3ccc(F)cc23)C(=O)N[C@@H](Cc2ccccc2)C(=O)N[C@H](C(=O)N[C@H](CCCCNC(=O)CN2CCN(CC(=O)O)CCN(CC(=O)O)CCN(CC(=O)O)CC2)C(=O)O)[C@@H](C)O)NC(=O)[C@H](Cc2ccc(O)cc2)NC(=O)[C@H](C(C)C)NC(=O)[C@H](CC(=O)O)NC(=O)[C@H](CC2CCOCC2)NC(=O)[C@H](CCCCN)NC(=O)CN(C)C(=O)[C@H](C(C)C)NC1=O [compound 362, Ac-hLeu-Y-C-V-Sar-K-ThpA-D-V-Y-C-5FW-F-Thr-dLys(DOTA)-COOH] (Ac-[hLeu]YCV[Sar]K[Ala(4-THP)]DVYC[Trp(5-F)]FT[dK](DOTA)-OH; disulfide 3-11)	< 1

Same assay, conditions: SPR KD—37° C., 4Ig B7-H3; 37° C. flow cell temperature

Structure (SMILES)	Kd [nM]
CC(C)CC[C@H](NC(=O)CCOCCOCCOCCOCCOCCOCCOCCOCCNC(=O)CCCc1ccc(I)cc1)C(=O)N[C@@H](Cc1ccc(O)cc1)C(=O)N[C@H]1CSSC[C@@H](C(=O)N[C@@H](Cc2c[nH]c3ccc(F)cc23)C(=O)N[C@@H](Cc2ccccc2)C(=O)N[C@H](C(=O)N[C@H](CCCCNC(=O)CN2CCN(CC(=O)O)CCN(CC(=O)O)CCN(CC(=O)O)CC2)C(=O)O)C(C)(C)O)NC(=O)[C@H](Cc2ccc(O)cc2)NC(=O)[C@H](C(C)C)NC(=O)[C@H](CC(=O)O)NC(=O)[C@H](CC2CCOCC2)NC(=O)[C@H](CCCCN)NC(=O)CNC(=O)[C@H](C(C)(C)C)NC1=O [compound 365, AB-PEG8-hLeu-Y-C-Tbg-G-K-ThpA-D-V-Y-C-5FW-F-hydroxyVal-dLys(DOTA)-COOH] ({Butanoyl(4-(4-I-phenyl))-PEG8}-[hLeu]YC[Tle]GK[Ala(4-THP)]DVYC[Trp(5-F)]F[Val(3-OH)][dK](DOTA)-OH; disulfide 3-11)	10 to 100
CC(=O)N[C@@H](CC1CCCCC1)C(=O)N[C@@H](Cc1ccc(O)cc1)C(=O)N[C@H]1CSSC[C@@H](C(=O)N[C@@H](Cc2c[nH]c3ccc(F)cc23)C(=O)N[C@@H](Cc2ccccc2)C(=O)N[C@H](C(=O)N[C@H](CCCCNC(=O)CN2CCN(CC(=O)O)CCN(CC(=O)O)CCN(CC(=O)O)CC2)C(=O)O)C(C)(C)O)NC(=O)[C@H](Cc2ccc(O)cc2)NC(=O)[C@H](C(C)C)NC(=O)[C@H](CC(=O)O)NC(=O)[C@H](CC2CCOCC2)NC(=O)[C@H](CCCCN)NC(=O)CNC(=O)[C@H](C(C)(C)C)NC1=O [compound 367, Ac-Cha-Y-C-Tbg-G-K-ThpA-D-V-Y-C-5FW-F-hydroxyVal-dLys(DOTA)-COOH] (Ac-[Cha]YC[Tle]GK[Ala(4-THP)]DVYC[Trp(5-F)]F[Val(3-OH)][dK](DOTA)-OH; disulfide 3-11)	1 to 10
CC(=O)N[C@@H](CCC(C)C)C(=O)N[C@@H](Cc1ccc(O)cc1)C(=O)N[C@H]1CSSC[C@@H](C(=O)N[C@@H](Cc2c[nH]c3ccc(F)cc23)C(=O)N[C@@H](Cc2ccccc2)C(=O)N[C@H](C(=O)N[C@H](CCCCNC(=O)CN2CCN(CC(=O)O)CCN(CC(=O)O)CCN(CC(=O)O)CC2)C(=O)O)C(C)(C)O)NC(=O)[C@H](Cc2ccc(O)cc2)NC(=O)[C@H](C(C)C)NC(=O)[C@H](CC(=O)O)NC(=O)[C@H](CC2CCOCC2)NC(=O)[C@H](CCCCN)NC(=O)CNC(=O)[C@H]([C@@H](C)O)NC1=O [compound 370, Ac-hLeu-Y-C-Thr-G-K-ThpA-D-V-Y-C-5FW-F-hydroxyVal-dLys(DOTA)-COOH] (Ac-[hLeu]YCTGK[Ala(4-THP)]DVYC[Trp(5-F)]F[Val(3-OH)][dK](DOTA)-OH; disulfide 3-11)	1 to 10
CC(=O)N[C@@H](CCC(C)C)C(=O)N[C@@H](Cc1ccc(O)cc1)C(=O)N[C@H]1CSSC[C@@H](C(=O)N[C@@H](Cc2c[nH]c3ccc(F)cc23)C(=O)N[C@@H](Cc2ccccc2)C(=O)N[C@H](C(=O)N[C@H](CCCCNC(=O)CN2CCN(CC(=O)O)CCN(CC(=O)O)CCN(CC(=O)O)CC2)C(=O)O)C(C)(C)O)NC(=O)[C@H](Cc2ccc(O)cc2)NC(=O)[C@H](C(C)C)NC(=O)[C@H](CC(=O)O)NC(=O)[C@H](CC2CCOCC2)NC(=O)[C@H](CN)NC(=O)CNC(=O)[C@H](C(C)(C)C)NC1=O [compound 372, Ac-hLeu-Y-C-Tbg-G-Dap-ThpA-D-V-Y-C-5FW-F-hydroxyVal-dLys(DOTA)-COOH] (Ac-[hLeu]YC[Tle]G[Dap][Ala(4-THP)]DVYC[Trp(5-F)]F[Val(3-OH)][dK](DOTA)-OH; disulfide 3-11)	< 1
CC(=O)N[C@@H](CCC(C)C)C(=O)N[C@@H](Cc1ccc(O)cc1)C(=O)N[C@H]1CSSC[C@@H](C(=O)N[C@@H](Cc2c[nH]c3ccc(F)cc23)C(=O)N[C@@H](Cc2ccccc2)C(=O)N[C@H](C(=O)N[C@H](CCCCNC(=O)CN2CCN(CC(=O)O)CCN(CC(=O)O)CCN(CC(=O)O)CC2)C(=O)O)C(C)(C)O)NC(=O)[C@H](Cc2ccc(O)cc2)NC(=O)[C@H](CCO)NC(=O)[C@H](CC(=O)O)NC(=O)[C@H](CC2CCOCC2)NC(=O)[C@H](CCCCN)NC(=O)CNC(=O)[C@H](C(C)(C)C)NC1=O [compound 373, Ac-hLeu-Y-C-Tbg-G-K-ThpA-D-hSer-Y-C-5FW-F-hydroxyVal-dLys(DOTA)-COOH] (Ac-[hLeu]YC[Tle]GK[Ala(4-THP)]D[hSer]YC[Trp(5-F)]F[Val(3-OH)][dK](DOTA)-OH; disulfide 3-11)	1 to 10
CC(=O)N[C@@H](CCC(C)C)C(=O)N[C@@H](Cc1ccc(O)cc1)C(=O)N[C@H]1CSSC[C@@H](C(=O)N[C@@H](Cc2c[nH]c3ccc(F)cc23)C(=O)N[C@@H](Cc2ccccc2)C(=O)N[C@H](C(=O)N[C@H](CCCCNC(=O)CN2CCN(CC(=O)O)CCN(CC(=O)O)CCN(CC(=O)O)CC2)C(=O)O)C(C)(C)O)NC(=O)[C@H](Cc2ccc(O)cc2)NC(=O)[C@H](C(C)C)NC(=O)[C@H](CC(=O)O)NC(=O)[C@H](CC2CCOCC2)NC(=O)[C@@H]2CCN2C(=O)CNC(=O)[C@H](C(C)(C)C)NC1=O [compound 375, Ac-hLeu-Y-C-Tbg-G-Aze-ThpA-D-V-Y-C-5FW-F-hydroxyVal-dLys(DOTA)-COOH] (Ac-[hLeu]YC[Tle]G[Aze][Ala(4-THP)]DVYC[Trp(5-F)]F[Val(3-OH)][dK](DOTA)-OH; disulfide 3-11)	1 to 10
CC(=O)N[C@@H](CCC(C)C)C(=O)N[C@@H](Cc1ccc(O)cc1)C(=O)N[C@H]1CSSC[C@@H](C(=O)N[C@@H](Cc2c[nH]c3ccc(F)cc23)C(=O)N[C@@H](Cc2ccccc2)C(=O)N[C@H](C(=O)N[C@H](CCCCNC(=O)CN2CCN(CC(=O)O)CCN(CC(=O)O)CCN(CC(=O)O)CC2)C(=O)O)C(C)(C)O)NC(=O)[C@H](Cc2ccc(O)cc2)NC(=O)[C@H]([C@@H](C)O)NC(=O)[C@H](CC(=O)O)NC(=O)[C@H](CC2CCOCC2)NC(=O)[C@H](CCCCN)NC(=O)CNC(=O)[C@H](C(C)(C)C)NC1=O [compound 377, Ac-hLeu-Y-C-Tbg-G-K-ThpA-D-Thr-Y-C-5FW-F-hydroxyVal-dLys(DOTA)-COOH] (Ac-[hLeu]YC[Tle]GK[Ala(4-THP)]DTYC[Trp(5-F)]F[Val(3-OH)][dK](DOTA)-OH; disulfide 3-11)	10 to 100
CC(=O)N[C@@H](CCC(C)C)C(=O)N[C@@H](Cc1ccc(O)cc1)C(=O)N[C@H]1CSSC[C@@H](C(=O)N[C@@H](Cc2c[nH]c3ccc(F)cc23)C(=O)N[C@@H](Cc2ccccc2)C(=O)N[C@H](C(=O)N[C@H](CCCCNC(=O)CN2CCN(CC(=O)O)CCN(CC(=O)O)CCN(CC(=O)O)CC2)C(=O)O)C(C)(C)O)NC(=O)[C@H](Cc2ccc(O)cc2)NC(=O)[C@H](CO)NC(=O)[C@H](CC(=O)O)NC(=O)[C@H](CC2CCOCC2)NC(=O)[C@H](CCCCN)NC(=O)CNC(=O)[C@H](C(C)(C)C)NC1=O [compound 378, Ac-hLeu-Y-C-Tbg-G-K-ThpA-D-Ser-Y-C-5FW-F-hydroxyVal-dLys(DOTA)-COOH] (Ac-[hLeu]YC[Tle]GK[Ala(4-THP)]DSYC[Trp(5-F)]F[Val(3-OH)][dK](DOTA)-OH; disulfide 3-11)	100 to 300
CC(=O)N[C@@H](CCC(C)C)C(=O)N[C@@H](Cc1ccc(O)cc1)C(=O)N[C@H]1CSSC[C@@H](C(=O)N[C@@H](Cc2c[nH]c3ccc(F)cc23)C(=O)N[C@@H](Cc2ccccc2)C(=O)N[C@H](C(N)=O)C(C)(C)O)NC(=O)[C@H](Cc2ccc(O)cc2)NC(=O)[C@H](C(C)C)NC(=O)[C@H](CC(=O)O)NC(=O)[C@H](CC2CCOCC2)NC(=O)[C@H](CC2CCN(C(=O)CCOCCOCCOCCOCCNC(=O)CN3CCN(CC(=O)O)CCN(CC(=O)O)CCN(CC(=O)O)CC3)CC2)NC(=O)CNC(=O)[C@H](C(C)(C)C)NC1=O [compound 382, Ac-hLeu-Y-C-Tbg-G-Pip(PEG4-DOTA)Ala-ThpA-D-V-Y-C-5FW-F-hydroxyVal-CONH2] (Ac-[hLeu]YC[Tle]G[Ala(piperidin-4-yl)]([PEG4-DOTA])[Ala(4-THP)]DVYC[Trp(5-F)]F[Val(3-OH)]-NH2; disulfide 3-11)	1 to 10
